Experimental data as given in article PMC12257394, “Design, Synthesis, and Biological Evaluation of Ferrocenyl–Cyclo-(Gly‑L‑Pro) Hybrids Sensitizing Multidrug-Resistant Cancer Cells to Anticancer Agents” (ACS Medicinal Chemistry Letters, 2025).
“Also recorded” adds a separate entry of the source.

Legend:
[1] = tested on: ABCG2-overexpressing SW620Mito cells; assay: MDR reversal assay (ERP), SW620Mito; format: cell-based, human; settings: for ERP value, mitoxantrone + compound: SW620Mito (xlsx); for ERP = IC50(drug)MDR/IC50(drug+4)MDR: mitoxantrone, SW620Mito
Excerpt: We investigated the potency of 4a–e to inhibit ABC transporters (ABCB1, ABCC1, and ABCG2) by determining their enhancement of reversal potency (ERP) values. ERP represents fold changes in the IC50 values of anticancer drugs in multidrug-resistant cancer sublines (ABCB1-overexpressing SW620D, SW620E, and SW620V; ABCC1-overexpressing SW620M; ABCG2-overexpressing SW620C and SW620Mito) exposed to a combination of the investigated compounds and anticancer agents at equimolar concentrations, compared with values obtained with drugs alone (Tables S2 and S3 and Figure ).
Standards. Multidrug-resistant variants of SW620 cells were developed in our laboratory as described previously.10, 11 All cells were cultured under standard conditions (37°C, 5% CO2, 100% humidity) in high-glucose DMEM supplemented with GlutaMaxTM, HEPES (ThermoFisher Scientific, USA), and 10% fetal bovine serum (EURx, Poland). Cells were routinely tested for potential Mycoplasma contamination using the MycoProbe Mycoplasma Detection kit (R&D System, USA).
In total, 104 cells in 100 µL of complete medium were plated per well of a 96-well plate and left overnight to allow cells to adhere to the surface. Then, the cells were exposed to a desired concentration of tested compound(s). Stock solutions were prepared in DMSO and used immediately. The final DMSO concentration was constant and nontoxic (0.1% v/v). After 70-h incubation, neutral red was added to the final concentration of 1 mM. After another 2 h, the medium was aspirated, and cells were washed twice with PBS. Dye was released using 100 µL of a solubilizer (1% acetic acid in 50% ethanol) on an orbital shaker (10 min). Absorbance was read at 540 nm using EnVision Multilabel Plate Reader (Perkin Elmer, USA). Results were expressed as % of control. The IC50 parameters were calculated using GraphPad Prism version 10 (GraphPad Software, Boston, Massachusetts USA).
The enhancement of reversal potency (ERP) value determination
For MDR reversal assays, cytotoxic agents were co-administered with compounds 4a–4e at equimolar concentrations in a range of 10 nM to 100 µM. IC₅₀ values were determined in ABCB1-overexpressing SW620 cell line variants. The enhancement of reversal potency (ERP) was calculated using the following formula: ERP = IC₅₀(drug)MDR / IC₅₀(drug + compound)MDR. All experiments were performed in triplicate (n = 3).

SW620M cells = assay: Synergy determination (Bliss model, SynergyFinder), SW620M; format: cell-based, human; settings: drug methotrexate + additive; for synergy score: Bliss model
Excerpt: (§1) In an ideal setting, the effect of cell exposure to a combination of a chemotherapeutic and an MDR inhibitor should be synergistic. […] The highest synergy scores identified an optimal concentration range where the combination exerted its maximal effect. […] In cisplatin-resistant SW620C cells, the low or lack of synergy observed for most compounds may be due to the additive effects of cisplatin and 4 rather than a true synergistic interaction. […]
(§2) To evaluate the potential interactions between putative ABC inhibitors and anticancer drugs, we utilized the Bliss independence model, as implemented in the SynergyFinder web application.13, 14 Synergy scores and the most synergistic area scores were calculated based on the normalized dose–response matrices. A synergy score below −10 indicates likely […]
(§3) above 10 is indicative of likely synergistic interactions.
(§4) All experiments were performed at least three times, and the data were statistically analyzed

ABCB1 = target: T1, ABCB1 (Homo sapiens, UniProt P08183); assay: UIC-2 antibody-binding assay in SW620V cells; format: cell-based; settings: 1 μM compound, n = 3
T1 construct: ABCB1-overexpressing SW620V cells; endogenous in cells; host or cells: SW620V (vincristine-resistant variant of SW620, developed in the authors' laboratory by drug selection)
T1 sequence (P08183 whole entry): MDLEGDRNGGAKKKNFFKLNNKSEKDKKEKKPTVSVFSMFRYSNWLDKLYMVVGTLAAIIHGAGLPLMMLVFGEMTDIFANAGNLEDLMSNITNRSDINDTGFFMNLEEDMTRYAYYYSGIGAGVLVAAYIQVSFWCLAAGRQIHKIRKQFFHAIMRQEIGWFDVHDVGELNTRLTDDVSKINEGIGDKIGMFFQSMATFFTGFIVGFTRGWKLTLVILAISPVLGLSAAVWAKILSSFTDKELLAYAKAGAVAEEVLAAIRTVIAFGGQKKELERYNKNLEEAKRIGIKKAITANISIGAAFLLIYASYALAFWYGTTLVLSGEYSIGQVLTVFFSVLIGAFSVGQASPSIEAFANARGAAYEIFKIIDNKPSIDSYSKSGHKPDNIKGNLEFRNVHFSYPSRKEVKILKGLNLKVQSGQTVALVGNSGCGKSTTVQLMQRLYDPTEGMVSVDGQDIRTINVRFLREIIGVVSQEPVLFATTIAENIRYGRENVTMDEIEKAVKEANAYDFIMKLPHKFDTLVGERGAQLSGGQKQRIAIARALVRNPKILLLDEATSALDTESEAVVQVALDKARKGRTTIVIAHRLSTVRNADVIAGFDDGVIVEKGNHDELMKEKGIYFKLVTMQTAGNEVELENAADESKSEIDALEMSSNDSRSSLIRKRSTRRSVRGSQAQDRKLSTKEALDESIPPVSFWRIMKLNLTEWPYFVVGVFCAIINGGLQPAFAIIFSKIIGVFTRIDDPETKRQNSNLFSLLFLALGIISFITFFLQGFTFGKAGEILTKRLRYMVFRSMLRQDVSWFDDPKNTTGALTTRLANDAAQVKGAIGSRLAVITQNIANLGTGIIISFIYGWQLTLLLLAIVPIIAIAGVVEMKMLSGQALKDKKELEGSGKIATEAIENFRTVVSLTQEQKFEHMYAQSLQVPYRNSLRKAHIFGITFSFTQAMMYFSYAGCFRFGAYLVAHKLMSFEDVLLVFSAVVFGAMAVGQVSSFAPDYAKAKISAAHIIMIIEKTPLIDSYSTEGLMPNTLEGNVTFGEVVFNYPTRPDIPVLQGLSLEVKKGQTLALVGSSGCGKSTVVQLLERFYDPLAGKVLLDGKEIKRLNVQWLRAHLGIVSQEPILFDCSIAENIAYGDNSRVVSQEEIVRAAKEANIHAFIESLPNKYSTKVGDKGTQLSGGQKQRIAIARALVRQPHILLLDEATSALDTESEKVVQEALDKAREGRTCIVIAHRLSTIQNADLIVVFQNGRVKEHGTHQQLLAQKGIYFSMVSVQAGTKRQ
Excerpt: (§5) To obtain deeper insight into the direct interactions between the investigated inhibitors and transporter protein molecules, we used two commercially available antibodies, UIC-2 and 5D3, which recognize the active forms of ABCB1 and ABCG2, respectively. These antibodies specifically recognize epitopes that are exposed when the transporter interacts with the allocrite.
(§6) A total of 106 parental SW620 cells expressing low level of ABC proteins or their multidrug - resistant variant SW620V cells (overexpressing ABCB1) or SW620Mito cells (overexpressing ABCG2) were suspended in 1 mL of complete culture medium supplemented with solvent (DMSO), a positive control (vincristine/mitoxantrone), or an investigated compound at a final concentration of 1 µM. APC-conjugated UIC2 anti-ABCB1/FITC-conjugated 5D3 anti-ABCG2 antibody or the respective isotype control was then added to a final concentration of 5 µg/mL, and the samples were incubated at 37°C for 60 min. Then, the cells were washed three times (100 × g for 10 min) with fresh medium and analyzed using a FACSymphony A1 (Becton, Dickinson and Company, New Jersey, USA) instrument. Results were expressed as a difference of median of fluorescence of a given sample (specific binding of antibody) and the respec tive isotype control (unspecific binding). […]
as §4

ABCG2 = target: T2, ABCG2 (Homo sapiens, UniProt Q9UNQ0); assay: 5D3 antibody-binding assay in SW620Mito cells; format: cell-based; settings: 1 μM compound, n = 3
T2 construct: ABCG2-overexpressing SW620C and SW620Mito; endogenous in cells; host or cells: SW620Mito (mitoxantrone-resistant variant of SW620, developed in the authors' laboratory by drug selection)
T2 sequence (Q9UNQ0 1-655): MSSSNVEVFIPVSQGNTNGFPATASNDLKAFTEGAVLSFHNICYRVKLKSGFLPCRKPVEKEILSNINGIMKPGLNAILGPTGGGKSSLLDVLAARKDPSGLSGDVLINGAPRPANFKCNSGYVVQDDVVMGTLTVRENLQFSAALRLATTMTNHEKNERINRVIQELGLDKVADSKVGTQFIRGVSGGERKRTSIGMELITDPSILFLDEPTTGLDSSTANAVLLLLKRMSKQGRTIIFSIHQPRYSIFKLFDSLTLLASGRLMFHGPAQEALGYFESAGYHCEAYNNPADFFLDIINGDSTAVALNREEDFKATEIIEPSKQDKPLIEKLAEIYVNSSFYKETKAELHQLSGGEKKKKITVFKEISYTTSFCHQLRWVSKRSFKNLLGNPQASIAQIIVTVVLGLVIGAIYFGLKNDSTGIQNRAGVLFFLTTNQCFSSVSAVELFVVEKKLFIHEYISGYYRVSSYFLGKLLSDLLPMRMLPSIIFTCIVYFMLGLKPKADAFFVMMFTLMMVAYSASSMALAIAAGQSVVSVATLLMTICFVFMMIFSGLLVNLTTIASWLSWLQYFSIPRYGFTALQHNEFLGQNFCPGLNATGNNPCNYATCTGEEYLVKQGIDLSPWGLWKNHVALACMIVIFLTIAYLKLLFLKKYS
Excerpt: as §5, §6, §4

SW620V cells = assay: Synergy determination (Bliss model, SynergyFinder), SW620V; format: cell-based, human; settings: drug vincristine + additive; for synergy score: Bliss model
Excerpt: as §1, §2, §3, §4

Compound	ERP value, mitoxantrone + compound [1]	ERP = IC50(drug)MDR/IC50(drug+4)MDR [1]	most synergistic area score (SW620M cells)	synergy score (SW620M cells)	UIC-2 antibody binding to ABCB1 (ABCB1)	5D3 antibody binding to ABCG2 (ABCG2)	most synergistic area score (SW620V cells)	synergy score (SW620V cells)
O=C1N/C(=C/c2cccc(-[c-]3cccc3)c2)C(=O)N2CCC[C@@H]12.[Fe+2].c1cc[cH-]c1 [(S,E)-4c]	0.87	0.87	0.00	–2.83	no detectable interaction	no detectable interaction		
O=C1N/C(=C/c2ccccc2)C(=O)N2CCC[C@@H]12 [(S,E)-4e]	0.82	0.82						
O=C1N/C(=C\[c-]2cccc2)C(=O)N2CCC[C@@H]12.[Fe+2].c1cc[cH-]c1 [(S,Z)-4a]	4.61	4.61	3.56	–3.78	binding patterns expected for ABCB1 allocrites	recognized as ABCG2 allocrites	15.88	4.27
O=C1N/C(=C\c2ccccc2-[c-]2cccc2)C(=O)N2CCC[C@@H]12.[Fe+2].c1cc[cH-]c1 [(S,Z)-4b]	9.11	9.11	1.57	–5.03	binding patterns expected for ABCB1 allocrites; also recorded: enhance UIC-2 antibody binding	recognized as ABCG2 allocrites	27.24	7.15
O=C1N/C(=C\c2ccc(-[c-]3cccc3)cc2)C(=O)N2CCC[C@@H]12.[Fe+2].c1cc[cH-]c1 [(S,Z)-4d]	10.3	10.3	0.00	–5.20	binding patterns expected for ABCB1 allocrites; also recorded: enhance UIC-2 antibody binding	recognized as ABCG2 allocrites	24.93	13.6
O=C1N/C(=C\c2ccccc2)C(=O)N2CCC[C@@H]12 [(S,Z)-4e]	1.01	1.01						
